Laboratory results: patent US20240208945A1, “6-CARBAMATE SUBSTITUTED HETEROARYL RING DERIVATIVES” (MEDSHINE DISCOVERY INC., priority 2021, published 2024)
Structures can show the parent of a compound that is named as a salt.

Experiments:
[1] = Pharmacokinetic evaluation in CD-1 mice (IV and oral); type: in vivo; settings: mouse, plasma
Procedure: CD-1 mice (male, 7 to 9 weeks old, Shanghai SLAC)
The pharmacokinetic characteristics of the compound in rodents after intravenous injection and oral administration were tested according to the standard protocol. In the experiment, the candidate compound was formulated into clear solutions, and a single intravenous injection and oral administration were given to mice. The vehicle for intravenous injection and oral administration was a mixed vehicle composed of 10% dimethyl sulfoxide and 90% hydroxypropyl β-cyclodextrin with a content of 10%. In this project, four female CD-1 mice were used, and two mice were administered intravenously at a dose of 1 mg/kg. Plasma samples were collected at 0.033, 0.083, 0.25, 0.5, 1, 2, 4, 8, and 12 hours after administration. The other two mice were administered orally by gavage at a dose of 2 mg/kg. Plasma samples were collected at 0.083, 0.25, 0.5, 1, 2, 4, 8, and 12 hours after administration, […] at 4° C. for 10 minutes at 3,200×g, and the supernatants were separated from the plasma samples. The protein was precipitated by adding 20 times the volume of methanol solution containing internal standard, […] at 12000×g for 15 minutes, centrifuged at 4° C. 50 μL of the supernatant was transferred to a 96-well plate and centrifuged for a second time to take the supernatant for injection. The plasma concentration was quantitatively analyzed by LC-MS/MS analysis method, and the pharmacokinetic parameters were calculated, such as peak concentration (Cmax), clearance rate (CL), half-life (T1/2), volume of distribution at steady state (Vdss), area under drug-time curve (AUC0-last), bioavailability (F).

[2] = molecular target: binding of KRAS(G12C) to SOS1 (Homo sapiens (Human), UniProt Q07889); assay: KRAS(G12C) and SOS1 binding assay (HTRF); settings: 25° C., 60 minutes
Sequence of binding of KRAS(G12C) to SOS1 (Q07889 564-1049, stated change not applied): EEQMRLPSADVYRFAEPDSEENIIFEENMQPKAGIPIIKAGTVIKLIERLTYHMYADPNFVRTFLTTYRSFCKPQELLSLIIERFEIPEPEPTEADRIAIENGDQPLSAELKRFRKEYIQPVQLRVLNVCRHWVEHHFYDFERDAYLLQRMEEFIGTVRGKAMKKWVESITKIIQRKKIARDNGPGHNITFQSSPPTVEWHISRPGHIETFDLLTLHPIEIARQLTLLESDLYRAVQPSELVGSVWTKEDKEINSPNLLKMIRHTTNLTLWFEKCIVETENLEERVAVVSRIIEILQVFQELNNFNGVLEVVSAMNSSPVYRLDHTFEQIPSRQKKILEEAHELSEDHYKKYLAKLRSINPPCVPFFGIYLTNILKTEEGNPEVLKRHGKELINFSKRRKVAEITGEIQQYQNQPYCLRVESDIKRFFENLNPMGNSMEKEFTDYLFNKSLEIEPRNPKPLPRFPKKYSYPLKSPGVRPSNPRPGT
Source text: The small molecular compound binds to the catalytic site of SOS1, thus inhibiting the binding of SOS1 to KRAS (G12C). When the binding of fluorescently labeled SOS1 protein to fluorescently labeled KRAS (G12C) protein is inhibited, the emitted fluorescence changes. The ability of small molecules to prevent the binding of SOS1 to KRAS (G12C) can be tested by detecting changes in fluorescence. A homogeneous time-resolved fluorescence (HTRF) binding assay was used to detect the ability of the compounds of the present disclosure to inhibit the binding of SOS1 to KRAS (G12C).
KRAS (G12C) protein was expressed and purified by Wuhan AtaGenix Biotechnology Co., Ltd., SOS1 exchange domin (564-1049) protein (Human recombinant) was purchased from Cytoskeleton, Mab Anti 6HIS-XL665 and Mab Anti GST-Eu cryptate were purchased from Cisbio. Multimode microplate reader Nivo5 was purchased from PerkinElmer.
1× buffer preparation (ready-to-use): Hepes: 5 mM; NaCl: 150 mM; EDTA: 10 mM; Igepal: 0.0025%; KF: 100 mM; DTT: 1 mM; BSA: […];
The test compounds were 5-fold diluted with DMSO using a multi-channel pipette to the 8th concentration, i.e., diluted from 1 mM to 0.064 μM.
The test compound was diluted by gradient with 1× buffer to a working solution with 2% DMSO. 5 μL/well of the working solution was added to corresponding wells, and the corresponding concentration gradient was 20 μM to […]. Duplicate experiment was set. The working solution was centrifuged at 1000 rpm for 1 minute.
A mixed working solution of KRAS(G12C) (200 nM) and Mab Anti GST-Eu cryptate (1 ng/μL) was prepared with 1× buffer, and the mixed working solution was incubated at 25° C. for 5 minutes, and 2.5 μL/well of the mixed working solution was added to the corresponding wells.
A mixed working solution of SOS1 (80 nM) and Mab Anti 6HIS-XL665 ([…]) was prepared with 1× buffer, and 2.5 μL/well of the mixed working solution was added to the corresponding wells. 2.5 μL of Mab Anti 6HIS-XL665 ([…]) diluent was added to blank wells. At this time, the final concentration gradient of the compound was diluted from 10 μM to 0.64 nM, KRAS(G12C) ([…]), MAb Anti GST-Eu cryptate (0.25 ng/μL), SOS1 (20 nM), Mab Anti 6HIS-XL665 (2 g/μL), the reaction system was placed at 25° C. for 60 minutes. After the reaction was completed, the multimode microplate reader was used to read HTRF.
Using the equation (Sample−Min)/(Max−Min)×100% to convert the raw data into inhibition rate, the IC50 value might be obtained by curve fitting with four parameters (obtained by “log (inhibitor) vs. response—Variable slope” mode in GraphPad Prism).

p-ERK in DLD-1 cells = assay: p-ERK inhibitory activity test in DLD-1 cells (HTRF Phospho-ERK1/2 kit); type: cell-based; settings: Homo sapiens, 1 hour incubation
Procedure: DLD-1 cells were purchased from Nanjing Cobioer; 1640 medium was purchased from Biological Industries; fetal bovine serum was purchased from Biosera; Advanced Phospho-ERK1/2 (THR202/TYR204) KIT was purchased from Cisbio.
DLD-1 cells were seeded in a transparent 96-well cell culture plate, with 80 μL of cell suspension per well and 8000 DLD-1 cells per well. The cell plate was incubated in a carbon dioxide incubator at 37° C. overnight; • the test compound was diluted to 2 mM with 100% DMSO as the first concentration, and then 5-fold diluted to the 8th concentration with a pipette, that is, diluted from 2 mM to 0.026 μM. 2 μL of compound was added to 78 μL of cell starvation medium. After mixing well, 20 μL of compound solution was taken and added to the corresponding cell plate wells, and the cell plate was put back to the carbon dioxide incubator to continue to incubate for 1 hour; at this time, the concentration of the compound was from 10 μM to 0.128 nM, and the concentration of DMSO was 0.5%; • after the incubation was completed, the cell supernatant was discarded, and 50 μL of cell lysate was added to each well, and incubated at room temperature for 30 minutes with shaking; • Phospho-ERK1/2 Eu Cryptate antibody and Phospho-ERK1/2 d2 antibody were 20-fold diluted using Detection buffer; • 16 μL of cell lysate supernatant per well was put into a new 384 white microplate, then 2 μL of Phospho-ERK1/2 Eu Cryptate antibody diluent and 2 μL of Phospho-ERK1/2 d2 antibody diluent were added thereto and incubated at room temperature for 4 hours; • after the incubation was completed, a multimode microplate reader was used to read HTRF excitation: 320 nm, emission: 615 nm, 665 nm.
Using the equation (Sample−Min)/(Max−Min)*100% to convert the raw data into inhibition rate, the IC50 value might be obtained by curve fitting with four parameters (obtained by “log (inhibitor) vs. response—Variable slope” mode in GraphPad Prism). • Max well: Positive control well reading is 1× lysate • Min well: Negative control well reading is 0.5% DMSO cell well cell lysate

[3] = system: Human pancreatic cancer cells (Miapaca2); assay: In vivo drug efficacy in the Miapaca2 nude mouse xenograft tumor model; set-up: species or system Balb/c nude mice; settings: Miapaca-2 xenograft, AMG-510 5 mg/kg once a day, compound 14 hydrochloride 50 mg/kg twice a day, intragastric
Procedure: Human pancreatic cancer cells (Miapaca2) were cultured in vitro as a monolayer on an adherent surface, and the culture conditions were DMEM medium plus 10% fetal bovine serum, cultured in a 37° C., 5% CO2 incubator. The cells were treated with trypsin-EDTA for routine digestion and passaged two to three times a week. When the cell saturation was 80% to 90% and the number reached the requirements, the cells were collected, counted, and inoculated.
Balb/c nude mice, female, 6 to 7 weeks old, were purchased from Shanghai SIPPR-BK Lab Animal Co., Ltd.
0.2 mL (5×10^6) Miapaca-2 cells (plus Matrigel, volume ratio of 1:1) were subcutaneously inoculated on the right back of each mouse, and the administration in groups began when the average tumor volume reached 118 mm^3.
The tumor diameter was measured twice a week with a vernier caliper, and the tumor volume was measured in cubic millimeters, calculated by the following formula: V=0.5a×b^2, wherein a and b are the long and short diameters of the tumor, respectively. The tumor inhibitory efficacy of the test compound was evaluated by using TGI (%). TGI (%) reflects the rate of tumor growth inhibition. […]

SMILES	Cmax ([1]; IV 1 mg/kg and oral 2 mg/kg study, read-out: Peak concentration Cmax) [nM]	bioavailability ([1]; IV 1 mg/kg, PO 2 mg/kg, read-out: Bioavailability F) [%]	clearance ([1]; IV 1 mg/kg, read-out: Clearance rate CL) [mL/min/kg]	half-life ([1]; IV 1 mg/kg, read-out: Half life T1/2 (IV) (converted)) [h]	Vd ([1]; IV 1 mg/kg, read-out: Volume of distribution at steady state Vdss) [L/kg]	AUC(0-t) ([1]; PO 2 mg/kg, read-out: Area under drug-time curve AUC0-last PO) [µM·h]	IC50 [2] [nM]	IC50 (p-ERK in DLD-1 cells) [nM]	Mean tumor volume ± SEM (day 22) [3] [mm^3]	TGI ([3]; day 22) [%]
COc1cc2nc(C)nc(N[C@H](C)c3cccc(C(F)(F)C(C)(C)O)c3F)c2cc1OC(=O)N1CCN(C)CC1C (stereo partly shown) [Hydrochloride of compound 14]	92.3	33.9	29.2	2.96	4.95	0.606	40.4	78.9	–	–
C=CC(=O)N1CCN(c2nc(=O)n(-c3c(C)ccnc3C(C)C)c3nc(-c4c(O)cccc4F)c(F)cc23)[C@@H](C)C1 (atropisomer, axis not shown) [AMG-510]	–	–	–	–	–	–	–	–	819 ± 407	59.4
